{"source": "the supplement of paper PMC10307832"}
{"compound": "C1=CC2=C(C=C(C(=C2N=C1)O)N=NC3=CC4=C(C=C3)C=C(C=C4)S(=O)(=O)O)S(=O)(=O)O + O=C(CCCCCCC(=O)Nc1ccccc1)NO [Vorinostat] (partner 1 µM)", "assay": "relative viability (nuclei count vs DMSO), 5 days (fraction); higher = more cells survive", "details": "first compound 8 µM", "in_short": "(§1)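 Nuclei were stained with Hoechst during a one-step fixation (final 0.05% Triton X-100, 1% formaldehyde, 1 ug/ml Hoechst) carried out 5 days after dosing, then counted on 4× images. The cells, lung cancer lines in 1536-well plates, had been dosed by pin tool the day after seeding with one drug alone or a fixed anchor-drug dose plus five library-drug doses (not always all listed) in √10 steps. Relative viability is the nuclei count in treated wells divided by that in vehicle wells, and each value is the median of duplicate plates.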"}
{"cell line": "NCI-H2405", "relative viability": 0.932}
{"cell line": "HOP-62", "relative viability": 0.6}
{"cell line": "HCC-44", "relative viability": 0.995}
{"cell line": "NCI-H522", "relative viability": 0.977}
{"cell line": "LU99A", "relative viability": 0.53}
{"cell line": "BEN", "relative viability": 0.589}
{"cell line": "HARA", "relative viability": 0.551}
{"cell line": "SW 900", "relative viability": 0.426}
{"cell line": "HCC-78", "relative viability": 0.434}
{"compound": "C1=CC2=C(C=C(C(=C2N=C1)O)N=NC3=CC4=C(C=C3)C=C(C=C4)S(=O)(=O)O)S(=O)(=O)O + CCNC(=O)c1noc(-c2cc(C(C)C)c(O)cc2O)c1-c1ccc(CN2CCOCC2)cc1 [Luminespib] (partner 0.01 µM)", "assay": "relative viability (nuclei count vs DMSO), 5 days (fraction); higher = more cells survive", "details": "first compound 0.08 µM", "in_short": "as §1"}
{"cell line": "NCI-H2342", "relative viability": 0.67}
{"cell line": "NCI-H1623", "relative viability": 0.747}
{"cell line": "NCI-H727", "relative viability": 0.478}
{"cell line": "NCI-H1650", "relative viability": 0.197}
{"cell line": "NCI-H1993", "relative viability": 0.83}
{"cell line": "SW 1573", "relative viability": 0.174}
{"cell line": "NCI-H838", "relative viability": 0.294}
{"cell line": "LCLC-103H", "relative viability": 1.09}
{"cell line": "NCI-H520", "relative viability": 0.237}
{"cell line": "NCI-H2126", "relative viability": 0.898}
{"cell line": "EMC-BAC-2", "relative viability": 1.25}
{"cell line": "NCI-H2085", "relative viability": 0.409}
{"cell line": "NCI-H1666", "relative viability": 1.09}
{"cell line": "NCI-H596", "relative viability": 1.16}
{"cell line": "LK-2", "relative viability": 0.156}
{"cell line": "NCI-H2087", "relative viability": 0.169}
{"cell line": "SK-MES-1", "relative viability": 0.786}
{"cell line": "H3255", "relative viability": 0.838}
{"cell line": "COR-L23", "relative viability": 0.748}
{"cell line": "COR-L 105", "relative viability": 0.786}
{"cell line": "LOU-NH91", "relative viability": 0.418}
{"cell line": "ChaGo-K-1", "relative viability": 0.558}
{"cell line": "NCI-H2170", "relative viability": 0.83}
{"cell line": "NCI-H2405", "relative viability": 0.891}
{"cell line": "HOP-62", "relative viability": 0.878}
{"cell line": "NCI-H522", "relative viability": 1.21}
{"cell line": "LU99A", "relative viability": 0.234}
{"cell line": "BEN", "relative viability": 0.295}
{"cell line": "HARA", "relative viability": 1.27}
{"cell line": "SW 900", "relative viability": 0.175}
{"cell line": "NCI-H1792", "relative viability": 0.481}
{"cell line": "NCI-H1563", "relative viability": 0.514}
{"compound": "C1=CC2=C(C=C(C(=C2N=C1)O)N=NC3=CC4=C(C=C3)C=C(C=C4)S(=O)(=O)O)S(=O)(=O)O + CCNC(=O)c1noc(-c2cc(C(C)C)c(O)cc2O)c1-c1ccc(CN2CCOCC2)cc1 [Luminespib] (partner 0.01 µM)", "assay": "relative viability (nuclei count vs DMSO), 5 days (fraction); higher = more cells survive", "details": "first compound 0.253 µM", "in_short": "as §1"}
{"cell line": "NCI-H2342", "relative viability": 0.714}
{"cell line": "NCI-H1623", "relative viability": 0.471}
{"cell line": "NCI-H727", "relative viability": 0.45}
{"cell line": "NCI-H1650", "relative viability": 0.177}
{"cell line": "NCI-H1993", "relative viability": 0.865}
{"cell line": "SW 1573", "relative viability": 0.598}
{"cell line": "NCI-H838", "relative viability": 0.281}
{"cell line": "LCLC-103H", "relative viability": 0.902}
{"cell line": "NCI-H520", "relative viability": 0.218}
{"cell line": "NCI-H2126", "relative viability": 0.899}
{"cell line": "EMC-BAC-2", "relative viability": 1.05}
{"cell line": "NCI-H2085", "relative viability": 0.419}
{"cell line": "NCI-H1666", "relative viability": 0.912}
{"cell line": "NCI-H596", "relative viability": 1.09}
{"cell line": "LK-2", "relative viability": 0.292}
{"cell line": "NCI-H2087", "relative viability": 0.191}
{"cell line": "SK-MES-1", "relative viability": 0.818}
{"cell line": "H3255", "relative viability": 0.876}
{"cell line": "COR-L23", "relative viability": 0.581}
{"cell line": "COR-L 105", "relative viability": 0.722}
{"cell line": "LOU-NH91", "relative viability": 0.354}
{"cell line": "ChaGo-K-1", "relative viability": 0.573}
{"cell line": "NCI-H2170", "relative viability": 0.63}
{"cell line": "NCI-H2405", "relative viability": 0.79}
{"cell line": "HOP-62", "relative viability": 0.773}
{"cell line": "HCC-44", "relative viability": 1.08}
{"cell line": "NCI-H522", "relative viability": 1.19}
{"cell line": "LU99A", "relative viability": 0.35}
{"cell line": "BEN", "relative viability": 0.353}
{"cell line": "HARA", "relative viability": 0.913}
{"cell line": "SW 900", "relative viability": 0.2}
{"cell line": "NCI-H1792", "relative viability": 0.418}
{"cell line": "NCI-H1563", "relative viability": 0.522}
{"compound": "C1=CC2=C(C=C(C(=C2N=C1)O)N=NC3=CC4=C(C=C3)C=C(C=C4)S(=O)(=O)O)S(=O)(=O)O + CCNC(=O)c1noc(-c2cc(C(C)C)c(O)cc2O)c1-c1ccc(CN2CCOCC2)cc1 [Luminespib] (partner 0.01 µM)", "assay": "relative viability (nuclei count vs DMSO), 5 days (fraction); higher = more cells survive", "details": "first compound 0.8 µM", "in_short": "as §1"}
{"cell line": "NCI-H2342", "relative viability": 0.625}
{"cell line": "NCI-H1623", "relative viability": 0.471}
{"cell line": "NCI-H727", "relative viability": 0.327}
{"cell line": "NCI-H1650", "relative viability": 0.194}
{"cell line": "NCI-H1993", "relative viability": 0.853}
{"cell line": "SW 1573", "relative viability": 0.268}
{"cell line": "NCI-H838", "relative viability": 0.267}
{"cell line": "LCLC-103H", "relative viability": 1.09}
{"cell line": "NCI-H520", "relative viability": 0.237}
{"cell line": "NCI-H2126", "relative viability": 0.89}
{"cell line": "EMC-BAC-2", "relative viability": 1.2}
{"cell line": "NCI-H2085", "relative viability": 0.426}
{"cell line": "NCI-H1666", "relative viability": 1.07}
{"cell line": "NCI-H596", "relative viability": 1.05}
{"cell line": "LK-2", "relative viability": 0.181}
{"cell line": "NCI-H2087", "relative viability": 0.153}
{"cell line": "SK-MES-1", "relative viability": 0.735}
{"cell line": "H3255", "relative viability": 0.864}
{"cell line": "COR-L23", "relative viability": 0.64}
{"cell line": "COR-L 105", "relative viability": 0.99}
{"cell line": "LOU-NH91", "relative viability": 0.327}
{"cell line": "ChaGo-K-1", "relative viability": 0.587}
{"cell line": "NCI-H2170", "relative viability": 0.672}
{"cell line": "NCI-H2405", "relative viability": 0.632}
{"cell line": "HOP-62", "relative viability": 0.916}
{"cell line": "HCC-44", "relative viability": 1.05}
{"cell line": "NCI-H522", "relative viability": 0.983}
{"cell line": "LU99A", "relative viability": 0.216}
{"cell line": "BEN", "relative viability": 0.424}
{"cell line": "HARA", "relative viability": 0.796}
{"cell line": "SW 900", "relative viability": 0.18}
{"cell line": "NCI-H1792", "relative viability": 0.58}
{"cell line": "NCI-H1563", "relative viability": 0.489}
{"compound": "C1=CC2=C(C=C(C(=C2N=C1)O)N=NC3=CC4=C(C=C3)C=C(C=C4)S(=O)(=O)O)S(=O)(=O)O + CCNC(=O)c1noc(-c2cc(C(C)C)c(O)cc2O)c1-c1ccc(CN2CCOCC2)cc1 [Luminespib] (partner 0.01 µM)", "assay": "relative viability (nuclei count vs DMSO), 5 days (fraction); higher = more cells survive", "details": "first compound 2.53 µM", "in_short": "as §1"}
{"cell line": "NCI-H2342", "relative viability": 0.767}
{"cell line": "NCI-H1623", "relative viability": 0.503}
{"cell line": "NCI-H727", "relative viability": 0.346}
{"cell line": "NCI-H1650", "relative viability": 0.191}
{"cell line": "NCI-H1993", "relative viability": 1.09}
{"cell line": "SW 1573", "relative viability": 0.372}
{"cell line": "NCI-H838", "relative viability": 0.24}
{"cell line": "LCLC-103H", "relative viability": 0.96}
{"cell line": "NCI-H520", "relative viability": 0.225}
{"cell line": "NCI-H2126", "relative viability": 1.04}
{"cell line": "EMC-BAC-2", "relative viability": 1.24}
{"cell line": "NCI-H2085", "relative viability": 0.367}
{"cell line": "NCI-H1666", "relative viability": 0.978}
{"cell line": "NCI-H596", "relative viability": 1.11}
{"cell line": "LK-2", "relative viability": 0.231}
{"cell line": "NCI-H2087", "relative viability": 0.231}
{"cell line": "SK-MES-1", "relative viability": 0.662}
{"cell line": "H3255", "relative viability": 0.855}
{"cell line": "COR-L23", "relative viability": 0.726}
{"cell line": "COR-L 105", "relative viability": 0.697}
{"cell line": "LOU-NH91", "relative viability": 0.373}
{"cell line": "ChaGo-K-1", "relative viability": 0.595}
{"cell line": "NCI-H2170", "relative viability": 0.731}
{"cell line": "NCI-H2405", "relative viability": 0.827}
{"cell line": "HOP-62", "relative viability": 0.919}
{"cell line": "HCC-44", "relative viability": 1.19}
{"cell line": "NCI-H522", "relative viability": 1.16}
{"cell line": "LU99A", "relative viability": 0.228}
{"cell line": "BEN", "relative viability": 0.627}
{"cell line": "HARA", "relative viability": 0.803}
{"cell line": "SW 900", "relative viability": 0.186}
{"cell line": "NCI-H1792", "relative viability": 0.423}
{"cell line": "NCI-H1563", "relative viability": 0.498}
{"compound": "C1=CC2=C(C=C(C(=C2N=C1)O)N=NC3=CC4=C(C=C3)C=C(C=C4)S(=O)(=O)O)S(=O)(=O)O + CCNC(=O)c1noc(-c2cc(C(C)C)c(O)cc2O)c1-c1ccc(CN2CCOCC2)cc1 [Luminespib] (partner 0.01 µM)", "assay": "relative viability (nuclei count vs DMSO), 5 days (fraction); higher = more cells survive", "details": "first compound 8 µM", "in_short": "as §1"}
{"cell line": "NCI-H2342", "relative viability": 0.73}
{"cell line": "NCI-H1623", "relative viability": 0.559}
{"cell line": "NCI-H727", "relative viability": 0.359}
{"cell line": "NCI-H1650", "relative viability": 0.184}
{"cell line": "NCI-H1993", "relative viability": 0.589}
{"cell line": "SW 1573", "relative viability": 0.216}
{"cell line": "NCI-H838", "relative viability": 0.279}
{"cell line": "LCLC-103H", "relative viability": 0.957}
{"cell line": "NCI-H520", "relative viability": 0.231}
{"cell line": "NCI-H2126", "relative viability": 0.86}
{"cell line": "EMC-BAC-2", "relative viability": 1.13}
{"cell line": "NCI-H2085", "relative viability": 0.44}
{"cell line": "NCI-H1666", "relative viability": 0.596}
{"cell line": "NCI-H596", "relative viability": 0.832}
{"cell line": "LK-2", "relative viability": 0.179}
{"cell line": "NCI-H2087", "relative viability": 0.237}
{"cell line": "SK-MES-1", "relative viability": 0.783}
{"cell line": "H3255", "relative viability": 0.78}
{"cell line": "COR-L23", "relative viability": 0.738}
